Calls of active or inactive are those of the source. The calls are words filed in the database; no cut-off is given here.

From ChEMBL document CHEMBL1157222, “Anxiolytic effect of natural galphimines from Galphimia glauca and their chemical derivatives” (2006) come the findings set out here.

Test [1] deals with Mus musculus. Kind of test: Anxiolytic effect in ICR mouse assessed as […] in time spent on open arm at 2.0 mg/kg, ip administered 1 hr before by elevated plus-maze test. The test is classed as functional, organism-based. Further details: dose 2 mg/kg.
The subject of test [2] is Mus musculus. Put plainly: Anxiolytic effect in ICR mouse assessed as […] in entries of open arm at 2.0 mg/kg, ip administered 1 hr before by elevated plus-maze test. It counts as functional, organism-based. Further details: dose 2 mg/kg.
The subject of test [3] is Mus musculus. Kind of test: Anxiolytic effect in ICR mouse assessed as increase in number of entries on open arm at 15 mg/kg, ip administered 1 hr before by elevated plus-maze test. The test is classed as functional. The note with it: route intraperitoneal.
Test [4] deals with Mus musculus. Put plainly: Anxiolytic effect in ICR mouse assessed as increase in time spent on open arm at 15 mg/kg, ip administered 1 hr before by elevated plus-maze test. It counts as functional. As to conditions: route intraperitoneal.
The test system of test [5] is Mus musculus. Put plainly: Anxiolytic effect in ICR mouse assessed as increase in entries of open arm at 1.0 mg/kg, ip administered 1 hr before by elevated plus-maze test. Further details: dose 1 mg/kg. It counts as functional, organism-based.
Test [6] has as its system Mus musculus. Put plainly: Anxiolytic effect in ICR mouse assessed as increase in time spent on open arm at 1.0 mg/kg, ip administered 1 hr before by elevated plus-maze test. The test is classed as functional, organism-based. Further details: dose 1 mg/kg.

For `C=C(C)[C@@H]1[C@H]2OC(=O)[C@@H]1[C@]1(O)C[C@H]3OC34C(=O)O[C@H]2[C@@]41C.CC(C)(O)[C@@H]1[C@H]2OC(=O)[C@@H]1[C@]1(O)C[C@H]3OC34C(=O)O[C@H]2[C@@]41C` (stereo not given in full), the result in the test on Mus musculus [1] and in the test with Mus musculus [2] was Active.

`COC(=O)[C@@]12CC[C@@]3(C)[C@@H]4C=CC(=O)OC[C@]4([C@@H](C)O)C[C@@H](O)[C@@H]3[C@@]1(C)CC[C@@]1(C)CC=C(C)C[C@]12O` [GALPHIMINE B]: the Activity with Mus musculus [3] came out at 72.5%; in the test on Mus musculus [4], 76.3%.

On to `CN1C(=O)CN=C(c2ccccc2)c2cc(Cl)ccc21`, for which the result with Mus musculus [5] and in the test on Mus musculus [6] was Active.

Regarding `COC(=O)CC[C@H]1[C@]2(C)CC[C@@]3(C(=O)OC)[C@]4(O)CC(C)=CC[C@]4(C)CC[C@]3(C)[C@H]2[C@H](O)[C@H](O)[C@]1(CO)[C@@H](C)O`, the values for the Activity in the test on Mus musculus [3] and in the test on Mus musculus [4] were 61.8% and 76.8%, respectively.

Consider `COC(=O)[C@@]12CC[C@@]3(C)[C@@H]4C=CC(=O)OC[C@]4([C@@H](C)O)[C@@H](O)[C@@H](O)[C@@H]3[C@@]1(C)CC[C@@]1(C)CC=C(C)C[C@]12O` [GALPHIMINE A], for which the Activity was 76.8% in the test with Mus musculus [3] and 68.3% in the test on Mus musculus [4].
